Patent publication US20240239799A1, “(S)-1-(5-((PYRIDIN-3-YL)THIO)PYRAZIN-2-YL)-4'H,6'H-SPIRO[PIPERIDINE-4,5'-PYRROLO [1,2-B]PYRAZOL]-4'-AMINE DERIVATIVES AND SIMILAR COMPOUNDS AS SHP2 INHIBITORS FOR THE TREATMENT OF E.G. CANCER” (C.N.C.C.S. S.C.A.R.L. COLLEZIONE NAZIONALE DEI COMPOSTI …, priority 2021, published 2024)
Read-outs that look alike come from different tables or passages of the source.

Columns and labels:
[1] = biological target: T1, SHP-2 enzyme (Met1-Leu525) (Homo sapiens, UniProt Q06124); test: SHP2 inhibition enzymatic assay (DiFMUP substrate, IRS1 peptide activation); format: biochemical; conditions: 0.5 nM SHP-2, 500 nM IRS1 peptide, 75 μM DiFMUP; read-out: SHP2wt - IC50
T1 construct: synthetized by Origene, Met1-Leu525, cat #TP750155; purchased Origene TP750155
T1 sequence (Q06124 1-525): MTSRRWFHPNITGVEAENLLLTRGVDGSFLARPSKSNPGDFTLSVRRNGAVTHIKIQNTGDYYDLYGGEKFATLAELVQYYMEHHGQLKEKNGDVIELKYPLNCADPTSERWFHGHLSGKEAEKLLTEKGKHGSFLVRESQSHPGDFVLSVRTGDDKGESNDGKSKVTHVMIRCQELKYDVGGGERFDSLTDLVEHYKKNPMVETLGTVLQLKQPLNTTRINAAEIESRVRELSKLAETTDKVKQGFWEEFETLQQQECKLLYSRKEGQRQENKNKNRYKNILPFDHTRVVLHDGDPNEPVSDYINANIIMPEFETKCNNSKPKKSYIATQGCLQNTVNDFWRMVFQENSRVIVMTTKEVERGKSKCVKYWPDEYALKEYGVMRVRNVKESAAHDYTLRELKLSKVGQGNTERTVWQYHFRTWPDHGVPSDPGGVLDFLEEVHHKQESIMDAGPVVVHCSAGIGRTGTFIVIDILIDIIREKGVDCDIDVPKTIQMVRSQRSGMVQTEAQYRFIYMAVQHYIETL
Protocol: Assay volume of 20 μL/well was assembled in 384 well black polystyrene low-binding microplates (Greiner), using the following buffer: 60 mM HEPES pH 7.2, 75 mM NaCl, 75 mM KCl, 1 mM EDTA pH 8, 0.05% tween-20, 5 mM DTT. The SHP-2 enzyme (synthetized by Origene, Met1-Leu525, cat #TP750155) was used at a final concentration of 0.5 nM.
Briefly, DMSO serially diluted testing compounds were transferred to the bottom of the assay plate. SHP2 was then added together with the IRS1 peptide 30 min post incubation, the DiFMUP substrate was added to the reaction and incubated 30 min at rt. […] The fluorescence was detected by a microplate reader (Envision, PerkinElmer) according to the DiFMUP excitation and emission wavelength. The lower the fluorescence the higher the SHP2 inhibition.
The percentage inhibition is fitted against the compound dilutions with a four-parameter logistic regression. The inflection point (i.e. the concentration at which half-maximal inhibition is achieved) is the IC50.

[2] = system: phospho-ERK1/2 (Thr202/Tyr204) in KYSE-520 cells; test: Phospho-ERK cellular assay (TR-FRET); format: cell-based; conditions: KYSE-520 cells, 2 h at 37° C., read-out: pERK IC50
Protocol: ERK phosphorylation was detected using the “Advanced phospho-ERK1/2 (Thr202/Tyr204)” TR-FRET kit (Cisbio, Cat #64AERPEG/H), following the manufacturer reagents and instructions.
Briefly, 20.000/well KYSE-520 cells (DSMZ ACC 371) were plated in 6 μL RPMI-1640 (Invitrogen) growth medium, into 384 white low-volume high base TC microplates (Greiner). After an overnight incubation, cells were treated with DMSO serial diluted compounds and incubated for 2 h at 37° C. After incubation, 2 μL/well of 4X Lysis Buffer (Cisbio 64KL1FDF), were added and incubated with cells for 30 min on gentle shaking. Finally, lysates were added with 2 μL/well of Eu cryptate (donor) and D2 (acceptor) conjugated antibodies (as provided by the Cisbio kit #64AERPEG/H) diluted 1:100 in Detection Buffer (as provided by the Cisbio kit #64AERPEG/H). Plates were then sealed and incubated at rt in the dark. After an overnight incubation, the TR-FRET signal was detected on a suitable reader (Envision, PerkinElmer). The lower the TR-FRET signal the higher the higher the SHP2 inhibition in cells.
The activity of each compound dilution was calculated as percentage between vehicle DMSO treated cells and no cells, 0% inhibition and 100% inhibition respectively. The percentage activity is fitted against the compound dilutions with a four-parameter logistic regression. The inflection point (i.e. the concentration at which half-maximal inhibition is achieved) is the IC50.

SMILES | IC50 [1] | IC50 ([2]; Homo sapiens, KYSE-520, 2 h) | IC50 [2]
N[C@@H]1c2ccnn2CC12CCN(c1cnc(Sc3ccc4nccn4c3Cl)cn1)CC2 [Example 56, (S)-1-(5-((5-chloroimidazo[1,2-a]pyridin-6-yl)thio)pyrazin-2-yl)-4′H,6′H-spiro[piperidine-4,5′-pyrrolo[1,2-b]pyrazol]-4′-amine] | ≤ 50 nM | < 100 nM | 
N[C@@H]1c2ccnn2CC12CCN(c1nccn3c(-c4cccc(Cl)c4Cl)ncc13)CC2 [Example 85, (S)-1-(3-(2,3-dichlorophenyl)imidazo[1,5-a]pyrazin-8-yl)-4′H,6′H-spiro[piperidine-4,5′-pyrrolo[1,2-b]pyrazol]-4′-amine] | ≤ 50 nM | < 100 nM | 
Nc1nccc(Sc2ccc(N3CCC4(CC3)Cn3nccc3[C@H]4N)nn2)c1Cl [Example 35, (S)-1-(6-((2-amino-3-chloropyridin-4-yl)thio)pyridazin-3-yl)-4′H,6′H-spiro[piperidine-4,5′-pyrrolo[1,2-b]pyrazol]-4′-amine] | ≤ 50 nM | 100 to 500 nM | 
Cn1c(N2CCC3(CC2)Cn2nccc2[C@H]3N)nc2[nH]nc(-c3ccnc(N)c3Cl)c2c1=O [Example 46, (S)-3-(2-amino-3-chloropyridin-4-yl)-6-(4′-amino-4′H,6′H-spiro[piperidine-4,5′-pyrrolo[1,2-b]pyrazol]-1-yl)-5-methyl-1,5-dihydro-4H-pyrazolo[3,4-d]pyrimidin-4-one] | ≤ 50 nM | < 100 nM | 
Nc1nc(N2CCC3(CC2)Cn2nncc2[C@H]3N)cnc1Sc1ccnc(N)c1Cl [Example 37, (S)-1-(6-amino-5-((2-amino-3-chloropyridin-4-yl)thio)pyrazin-2-yl)-4′H,6′H-spiro[piperidine-4,5′-pyrrolo[1,2-c][1,2,3]triazol]-4′-amine] | ≤ 50 nM | 100 to 500 nM | 
N[C@@H]1c2ccnn2CC12CCN(c1cnc(Sc3ccnc(-n4cc(F)cn4)c3Cl)cn1)CC2 [Example 61, (S)-1-(5-((3-chloro-2-(4-fluoro-1H-pyrazol-1-yl)pyridin-4-yl)thio)pyrazin-2-yl)-4′H,6′H-spiro[piperidine-4,5′-pyrrolo[1,2-b]pyrazol]-4′-amine] | ≤ 50 nM | < 100 nM | 
Cn1cc2c(Cl)c(-c3n[nH]c4nc(N5CCC6(CC5)Cn5nccc5[C@H]6N)cnc34)ccc2n1 [Example 70, (S)-1-(3-(4-chloro-2-methyl-2H-indazol-5-yl)-1H-pyrazolo[3,4-b]pyrazin-6-yl)-4′H,6′H-spiro[piperidine-4,5′-pyrrolo[1,2-b]pyrazol]-4′-amine] | ≤ 50 nM | < 100 nM | 
N[C@@H]1c2ccnn2CC12CCN(c1cnc(Sc3ccnc4c(F)cccc34)cn1)CC2 [Example 79, (S)-1-(5-((8-fluoroquinolin-4-yl)thio)pyrazin-2-yl)-4′H,6′H-spiro[piperidine-4,5′-pyrrolo[1,2-b]pyrazol]-4′-amine] | ≤ 50 nM | < 100 nM | 
Nc1nccc(Sc2cnc(N3CCC4(CC3)Cn3nc5c(c3C4O)CCC5)c3cncn23)c1Cl (centres unmarked) [Example 22, 1′-(5-((2-amino-3-chloropyridin-4-yl)thio)imidazo[1,5-a]pyrazin-8-yl)-1,2,3,8-tetrahydro-6H-spiro[cyclopenta[d]pyrrolo[1,2-b]pyrazole-7,4′-piperidin]-8-ol] | > 300 nM | > 500 nM | 
Nc1nccc(Sc2cnc(N3CCC4(CC3)Cn3nc(CO)c(CO)c3[C@H]4N)c3cncn23)c1Cl [Example 28, (S)-(4′-amino-1-(5-((2-amino-3-chloropyridin-4-yl)thio)imidazo[1,5-a]pyrazin-8-yl)-4′H,6′H-spiro[piperidine-4,5′-pyrrolo[1,2-b]pyrazole]-2′,3′-diyl)dimethanol] | 50 to 300 nM | < 100 nM | 
Cc1nc(N2CCC3(CC2)Cn2nccc2[C@H]3N)cc(=O)n1-c1cccc(Cl)c1Cl (single isomer, unassigned) [Example 77a] | ≤ 50 nM |  | 100 to 500 nM
CN(C)C(=O)c1cn2ccc(Sc3cnc(N4CCC5(CC4)Cn4nccc4[C@H]5N)cn3)c(Cl)c2n1 [Example 68, (S)-7-((5-(4′-amino-4′H,6′H-spiro[piperidine-4,5′-pyrrolo[1,2-b]pyrazol]-1-yl)pyrazin-2-yl)thio)-8-chloro-N,N-dimethylimidazo[1,2-a]pyridine-2-carboxamide] | ≤ 50 nM | < 100 nM | 
Cc1c(N2CCC3(CC2)Cn2nccc2[C@H]3N)nc(C)n(-c2cccc(Cl)c2Cl)c1=O [Example 88, (S)-6-(4′-amino-4′H,6′H-spiro[piperidine-4,5′-pyrrolo[1,2-b]pyrazol]-1-yl)-3-(2,3-dichlorophenyl)-2,5-dimethylpyrimidin-4(3H)-one] | ≤ 50 nM |  | 
Cc1nccc(Sc2cnc(N3CCC4(CC3)Cn3cccc3[C@H]4N)cn2)c1F [Example 87, (S)-1-(5-((3-fluoro-2-methylpyridin-4-yl)thio)pyrazin-2-yl)-1′H,3′H-spiro[piperidine-4,2′-pyrrolizin]-1′-amine] | ≤ 50 nM |  | 
Cc1nccc(-c2ncc3c(N4CCC5(CC4)Cn4nccc4[C@H]5N)nccn23)c1F [Example 89, (S)-1-(3-(3-fluoro-2-methylpyridin-4-yl)imidazo[1,5-a]pyrazin-8-yl)-4′H,6′H-spiro[piperidine-4,5′-pyrrolo[1,2-b]pyrazol]-4′-amine] | 50 to 300 nM |  | 
COc1cc2n(n1)CC1(CCN(c3cnc(Sc4ccnc(N)c4Cl)cn3)CC1)[C@@H]2N [Example 12, (S)-1-(5-((2-amino-3-chloropyridin-4-yl)thio)pyrazin-2-yl)-2′-methoxy-4′H,6′H-spiro[piperidine-4,5′-pyrrolo[1,2-b]pyrazol]-4′-amine] | ≤ 50 nM | 100 to 500 nM | 
N[C@@H]1c2ccnn2CC12CCN(c1cnc(Sc3ccnc(-n4cccn4)c3Cl)c3cncn13)CC2 [Example 75, (S)-1-(8-((3-chloro-2-(1H-pyrazol-1-yl)pyridin-4-yl)thio)imidazo[1,5-a]pyrazin-5-yl)-4′H,6′H-spiro[piperidine-4,5′-pyrrolo[1,2-b]pyrazol]-4′-amine] | ≤ 50 nM | 100 to 500 nM | 
N[C@@H]1c2ccnn2CC12CCN(c1ccc(Oc3cccc(Cl)c3Cl)nc1)CC2 [Example 90, (S)-1-(6-(2,3-dichlorophenoxy)pyridin-3-yl)-4′H,6′H-spiro[piperidine-4,5′-pyrrolo[1,2-b]pyrazol]-4′-amine] | 50 to 300 nM |  | 
N[C@@H]1c2ccnn2CC12CCN(c1cnc(Sc3ccnc(-n4cccn4)c3Cl)cn1)CC2 [Example 33, (S)-1-(5-((3-chloro-2-(1H-pyrazol-1-yl)pyridin-4-yl)thio)pyrazin-2-yl)-4′H,6′H-spiro[piperidine-4,5′-pyrrolo[1,2-b]pyrazol]-4′-amine] |  | < 100 nM | 
Nc1nc(N2CCC3(CC2)Cn2nccc2[C@H]3N)cnc1Sc1ccn2ccnc2c1Cl [Example 44, (S)-1-(6-amino-5-((8-chloroimidazo[1,2-a]pyridin-7-yl)thio)pyrazin-2-yl)-4′H,6′H-spiro[piperidine-4,5′-pyrrolo[1,2-b]pyrazol]-4′-amine] |  | < 100 nM | 
Cc1cn2ccc(Sc3cnc(N4CCC5(CC4)Cn4nccc4[C@H]5N)cn3)c(Cl)c2n1 [Example 43, (S)-1-(5-((8-chloro-2-methylimidazo[1,2-a]pyridin-7-yl)thio)pyrazin-2-yl)-4′H,6′H-spiro[piperidine-4,5′-pyrrolo[1,2-b]pyrazol]-4′-amine] |  | < 100 nM | 
